Reference: publication PMC6099102, “Effect of the Nature of Donor Atoms on the Thermodynamic, Kinetic and Relaxation Properties of Mn(II) Complexes Formed With Some Trisubstituted 12-Membered Macrocyclic Ligands” (Frontiers in Chemistry, 2018)

Test: Longitudinal water proton relaxivity (r1p) of the Mn(II) complexes
Type: physicochemical
Settings: 0.5 T field strength, 25 °C and pH = 7.4
Protocol: The relaxometric data were collected using a Bruker Minispec MQ20 NMR relaxometer. […] A datapoint plotted on figures represents an average of 5–6 T1 measurements (Figures S3–S9 in Supplementary Material). The data were fitted by using the molar r1p relaxivity value of the MnCl2 ([…] at 0.49 T and 25 °C). The equilibrium constants were calculated using the PSEQUAD program (Zékány and Nagypál, [1985]).
The longitudinal water proton relaxation rates (r1 = 1/T1-1/Tw) were measured at 20 MHz with a Bruker Minispec MQ-20 relaxometer (Bruker Biospin, Germany). Samples were thermostated by using a circulating water bath at 25.0 ± 0.2 °C. The longitudinal relaxation times (T1) were measured by the inversion-recovery method (180° − τ − 90°), averaging 5–6 data points collected for each concentration point obtained from 14 different τ values (τ values ranging between 0 to at least 6 times the expected T1). The relaxivity of the complexes was determined by titrating a nearly 1.0 mM ligand solution with a Mn(II) stock solution at pH = 7.22–7.43 (50 mM HEPES buffer, I = 0.15 M NaCl, 25 °C). Under these conditions, the only Mn(II) ion containing species present in solution is the [Mn(L)], which was supported by the r1 vs. pH profiles. The relaxivity of the complex was determined as the slope of the strait line obtained by plotting 1/T1p values as a function of Mn(II) concentration for samples with [Ligand] > [Mn(II)]. The relaxivity of [Mn(DOTP)]^6− and [Mn(DO3P)]^4− was determined in the pH range of 10.0–11.0 and 8.5–9.3, respectively where mainly the [Mn(DO3P)]^4− and [Mn(DOTP)]^6− complex exists in solution (Figures S4 and S9 in Supplementary Material).
The relaxivity (r1p, mM^−1s^−1) is defined as the longitudinal water proton relaxation rate in a solution containing 1.0 mM concentration of the paramagnetic species. It characterizes the efficiency of a paramagnetic metal chelate to enhance the solvent proton relaxation rate at a given magnetic field (usually 20 MHz) and temperature. The inner-sphere contribution to relaxivity is directly proportional to the number of metal bound water molecules (q), and therefore, relaxivity values may provide some useful information on the hydration state of paramagnetic complexes of similar molecular weights and electronic relaxation times. […] The r1p values of the Mn(II) complexes formed with heptadentate 12-membered macrocyclic ligands were determined at 0.5 T field strength and 25 °C and reported in Table 4 along with some relaxivity data published for the complexes of hexa-, hepta- and octadentate ligands. […] Below these pH ranges the phosphonate moieties undergo protonation, which further increases the relaxivity (2.60–2.90 mM^−1s^−1 values were observed near pH = 7.4, see Supplementary Material). Similar increase in the relaxivity (to 3.20 mM^−1s^−1 at 20 MHz, 37 °C) is observed for the [Mn(DOTA)]^2− complex upon its protonation and formation of the thermodynamically stable diprotonated [Mn(H2DOTA)] complex that exists as a non-hydrated chelate both in solution and in the solid state (Wang and Westmoreland, [2009]). The relaxivity of the diprotonated species at t → 0 time point was determined from the extrapolation of the relaxivity vs. time data collected after acidification of the samples containing the complexes. The X-ray crystallographic structure of [Mn(H2DOTA)] indicates the protonation of two trans carboxylate moieties (e.g., the coordination around the metal ion is similar to that observed in [Mn(trans-DO2A)] as determined by DFT calculations). Thus, the relaxivity of the diprotonated [Mn(H2DOTA)] and [Mn(H2DOTMA)] complexes is expected to be similar to that of [Mn(trans-DO2A)] (when q = 0). The value obtained by us is considerably higher, which highlights the importance of prototropic exchange as a useful tool to improve the relaxivity of the complexes (however, it has to be underlined that the protonation of the complex generally leads to a decrease in kinetic inertness).

- r1p: 1.28 mM⁻¹ s⁻¹
SMILES: O=C(CN1CCN(CC(=O)N2CCCCC2)Cc2cccc(n2)CN(CC(=O)N2CCCCC2)CC1)N1CCCCC1.[Mn+2] [[Mn(PC3AM^Pip)]^2+]
